In US9290768B2, “Engineered microorganisms having resistance to ionic liquids” (priority 2012, dated 2016):

How the values were obtained:
[1] = tested on: E. coli; assay: Methyl viologen tolerance of E. coli expressing MFS1; assay type: cell-based; conditions: FIG. 6
From the text: Bottom solid lines are empty vector and tetR-mfs.
The closest homologue of MFS1 is a methyl viologen transporter protein in K. oxytoca. MFS1 conferred tolerance to this compound in E. coli (FIG. 6).

[2] = tested on: Enterobacter lignolyticus SCF1; assay: Growth of soil isolate in ionic liquid (IL resistance testing); assay type: cell-based; conditions: Enterobacter lignolyticus SCF1, tropical rain forest soil isolate
From the text: In testing for IL resistance in a tropical rain forest soil community, a bacterium that grows in up to 8% 1-ethyl-3-methylimidazolium chloride ([C2mim]Cl) was isolated. It is a Gram-negative anaerobe that is both lignocellulolytic and halotolerant: Enterobacter lignolyticus SCF1 (DeAngelis, et al., Standards in Genomic Sciences 5:69-85, 2011; Khudyakov, et al., Global transcriptome response to ionic liquid by a tropical rain forest soil bacterium, Enterobacter lignolyticus. Proc. Natl. Acad. Sci USA, 2012). We examined SCF1 to identify genes contributing to IL tolerance using various analyses, including screening an E. coli fosmid library containing SCF1 genomic DNA.

[3] = tested on: TetR-repressor; assay: MFS1-GFP fusion protein fluorescence (flow-cytometry), induction of repressor; assay type: cell-based, Enterobacter lignolyticus; conditions: FIG. 5
Procedure: FIG. 5 provides illustrative data showing that [C2mim]Cl-inducible TetR-repressor regulates MFS-expression. […] In the absence of this repressor, the intergenic promoter-region was constitutively turned on (left columns in bar graph compared to right columns).
An SCF1 library was constructed using 30-50 kb genomic DNA inserts in fosmid vectors, and E. coli transformants were plated on 2% [C2mim]Cl for initial selection. GFP-fluorescence was measured by flow-cytometry.
In the absence of this repressor, the intergenic promoter-region was constitutively turned on.

[4] = tested on: E. coli containing an expression plasmid encoding the entire 2.6 kbp insert; assay: Growth of E. coli carrying the 2.6 kbp SCF1 insert at different levels of [C2mim]Cl (shake flask growth assay); assay type: cell-based; conditions: E. coli clones comprising the mfs1 gene sequence; FIG. 3
From the text: FIG. 3 provides data from a 50-ml shake flask growth assay showing the resistance of E. coli containing the 2606 bp region to 4% and 6% [C2mim]Cl. Top panel: lines correspond to E. coli with common sequence; Enterobacter lignolyticus; and E. coli with empty vector; Middle panel (lines designated using hour 6 as a reference point): top line, E. coli with common sequence; middle line, Enterobacter lignolyticus; bottom line, E. coli with empty vector. Bottom panel: top line, E. coli with common sequence; middle line, Enterobacter lignolyticus; bottom line, E. coli with empty vector
SCF1 cells and E. coli containing an expression plasmid encoding the entire 2.6 kbp insert were tested at different levels of [C2mim]Cl.

[5] = tested on: E. coli expressing the transporter gene; assay type: cell-based; conditions: ionic liquids at equimolar levels; MFS1-expressing E. coli
Procedure: Top line, MFS/[C2mim]Cl; Second line from top, MFS/C2mim]Oac; Second line from bottom, empty vector//[C2mim]Cl; Bottom, line empty vector/C2mim]Oac
In one experiment, E. coli expressing the transporter gene were also cultured in media differing only in the type of imidazolium ionic liquid (at equimolar levels), to assess the influence of aliphatic chain lengths of the cation, and the anions Cl—, BuSO4-, and acetate.

C[n+]1ccc(-c2cc[n+](C)cc2)cc1 [methyl viologen]
tolerance of E. coli conferred by MFS1 [1]: confers tolerance

CCn1cc[n+](C)c1.[Cl-] [[C2mim]Cl, 1-ethyl-3-methylimidazolium chloride]
ionic liquid level in which the bacterium grows [2]: up to 8% | induction of the TetR-repressor / regulation of MFS1-expression [3]: inducible | ionic liquid level at which the clones exhibited resistance [4]: at least 6%

CC(=O)[O-].CCn1cc[n+](C)c1 [[C2mim]-Acetate, 1-ethyl-3-methylimidazolium acetate]
tolerance of E. coli expressing the transporter gene to the ionic liquid [5]: confers tolerance

CCCCn1cc[n+](C)c1.[Cl-] [BMIM-Cl, 1-butyl-3-methylimidazolium chloride]
tolerance of E. coli expressing the transporter gene to the ionic liquid [5]: lower tolerance than with EMIM-Cl
